Columns and labels:
[1] = in vitro dissolution of steroid, Method A (USP XX <711> Apparatus 2, 50 rpm); assay type: physicochemical; conditions: Examples 1-3, Methods A, B and C, no microcrystalline cellulose
Excerpt: CV represents the coefficient of variation between these trials expressed as a percentage.

[2] = in vitro dissolution of medrogestone, USP XX <711> Apparatus 2, 50 r.p.m.; assay type: physicochemical; conditions: sugar coat containing 0.4% microcrystalline cellulose versus conventional tablet
Experimental: A sugar coating containing 5 mg of medrogestone in a matrix of sucrose with 0.4% microcrystalline cellulose and 0.5% polyvinyl pyrrolidone was applied to a sealed and sugar-coated tablet core.

CC(=O)O[C@]1(C(C)=O)CC[C@H]2[C@@H]3C[C@H](C)C4=CC(=O)CC[C@]4(C)[C@H]3CC[C@@]21C [medroxyprogesterone acetate]
release from the sugar coating (in words) [1]: released from the sugar coating extremely rapidly

CC(=O)[C@@]1(C)CC[C@H]2[C@@H]3C=C(C)C4=CC(=O)CC[C@]4(C)[C@H]3CC[C@@]21C [medrogestone]
dissolution of medrogestone (in words) [2]: dramatic effect of reduced dissolution
